SMILES strings stand for the structures.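 Compound exposure: 48 hours, 5 concentrations, 96-well plates. GI50 is the concentration that inhibits growth by half. TGI marks complete inhibition of growth.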

One assay deals with MOLT-4 leukemia. Briefly: inhibition of tumour cell growth, NCI panel, 48 h.
Compound `OCCNCCN1CCN(CCCN2c3ccccc3Sc3ccc(C(F)(F)F)cc32)CC1` gave a TGI greater than 100 µM.
Still for that read-out and setting: as for `O=C(O)c1cc2c(ncc3c(=O)n(-c4ccccc4)[nH]c32)s1`, the figure is greater than 100 µM; as for `O=C(CCl)NNC1=Nc2ccc(Cl)cc2SC1`, 2.86 µM; as for `CCCc1c(-c2ccccc2)[nH]c2ccccc2c1=O`, greater than 100 µM.
Same read-out and setting: the result for `Cc1ccc(C2OC(COCc3ccc(Cl)cc3)C(OCc3ccc(Cl)cc3)C2O)cc1` (centres undefined) reads greater than 100 µM.
In the case of `CO/N=C(/C)c1ccc(NC(=O)CSc2nnc(-c3ccncc3)n2-c2ccccc2)cc1`, the GI50 is greater than 100 µM and the TGI was greater than 100 µM.
Compound `C[N+](C)(C)CCc1ccccc1` gave a TGI greater than 100 µM.
Same read-out and setting: the result for `COc1c(Br)cc2c(c1OC)C(Br)CCC(Br)(Br)C2=O` (centres undefined) reads 5.73 µM; that for `O=C1C=CC2(C=C1)O[C@H](Cc1ccccc1)[C@@H](Cc1ccccc1)O2`, […].
Take `CCCNC(=O)C(C)C1CCC2(C)C=CC(=O)C(C)=C2C1O` (centres undefined): the TGI is greater than 100 µM.
The same measure, in the same setting: the result for `O=C(Nc1nc2ccc([N+](=O)[O-])cc2s1)C(=O)C(C(=O)c1ccccc1F)C1OC(=O)c2ccccc21` (centres undefined) reads greater than 100 µM.
The same measure, in the same setting: the result for `COc1nc(=O)n(COC(CO)CN2C(=O)c3ccccc3C2=O)cc1Cc1cccc(OCc2ccccc2)c1` (centres undefined) reads 49.4 µM.

Another assay relates to NCI-H226 lung. Briefly: inhibition of tumour cell growth, NCI panel, 48 h.
In turn, `N#C[C@H](OC1OC(COC2OC(CO)C(O)C(O)C2O)C(O)C(O)C1O)c1ccccc1` (some centres undefined) gave a TGI greater than 250 µM.
In the case of `Cn1c(=O)c2[nH]c(CCNC(=O)c3ccccc3)nc2n(C)c1=O`, the TGI was greater than 100 µM.
Still for that read-out and setting: the result for `Cc1cc(S(=O)(=O)Nc2nc3ccccc3nc2-c2cccc([N+](=O)[O-])c2)c(S)cc1Cl` reads 44.5 µM.
The same measure, in the same setting: the result for `O=c1ssc(=Nc2ccccc2)n1-c1ccccc1` reads 46.5 µM.
Same read-out and setting: as for `NCCSS(=O)(=O)CCN`, the figure is greater than 100 µM; as for `CC(=O)Oc1cc2c(cc1OC(C)=O)OCC(c1ccccc1)C2` (centres undefined), 48.5 µM.
On to `OCCNCCN1CCN(CCCN2c3ccccc3Sc3ccc(C(F)(F)F)cc32)CC1`, for which the TGI was 49.9 µM.
The same measure, in the same setting: the result for `O=C(O)c1cc2c(ncc3c(=O)n(-c4ccccc4)[nH]c32)s1` reads greater than 100 µM.
Same read-out and setting: the result for `O=C(CCl)NNC1=Nc2ccc(Cl)cc2SC1` reads 6.16 µM.
Same read-out and setting: as for `CCCc1c(-c2ccccc2)[nH]c2ccccc2c1=O`, the figure is greater than 100 µM; as for `Cc1ccc(C2OC(COCc3ccc(Cl)cc3)C(OCc3ccc(Cl)cc3)C2O)cc1` (centres undefined), 38.5 µM.
In turn, `C[N+](C)(C)CCc1ccccc1` gave a TGI greater than 100 µM.
The same measure, in the same setting: the result for `COc1c(Br)cc2c(c1OC)C(Br)CCC(Br)(Br)C2=O` (centres undefined) reads 5.84 µM; that for `O=C1C=CC2(C=C1)O[C@H](Cc1ccccc1)[C@@H](Cc1ccccc1)O2`, 0.902 µM.
The same measure, in the same setting: the result for `CCCNC(=O)C(C)C1CCC2(C)C=CC(=O)C(C)=C2C1O` (centres undefined) reads greater than 100 µM; that for `Nc1ccn(C2C=C(CO)C(O)C2O)c(=O)c1` (centres undefined), greater than 625 µM; that for `COc1nc(=O)n(COC(CO)CN2C(=O)c3ccccc3C2=O)cc1Cc1cccc(OCc2ccccc2)c1` (centres undefined), 54.2 µM.

The next assay relates to RPMI-8226 leukemia. Briefly: inhibition of tumour cell growth, NCI panel, 48 h.
Regarding `N#C[C@H](OC1OC(COC2OC(CO)C(O)C(O)C2O)C(O)C(O)C1O)c1ccccc1` (some centres undefined), the TGI was greater than 250 µM.
`CCN(CC)c1ccc2cc(C(=O)Nc3ccc4[nH]c(C(=O)N5C[C@@H](CCl)c6c5cc(OC(=O)Nc5ccccc5)c5[nH]cc(C)c65)cc4c3)oc2c1`: the GI50 was 681 µM and the TGI is greater than 1000 µM.
As to `Cc1cc(S(=O)(=O)Nc2nc3ccccc3nc2-c2cccc([N+](=O)[O-])c2)c(S)cc1Cl`, the TGI was 64.7 µM.
The compound `O=c1ssc(=Nc2ccccc2)n1-c1ccccc1` returned a TGI of 57.5 µM.
`NCCSS(=O)(=O)CCN` gave a TGI greater than 100 µM.
On the same count and under the same terms, the result for `CC(=O)Oc1cc2c(cc1OC(C)=O)OCC(c1ccccc1)C2` (centres undefined) reads 54.5 µM; that for `OCCNCCN1CCN(CCCN2c3ccccc3Sc3ccc(C(F)(F)F)cc32)CC1`, greater than 100 µM.
As for `O=C(O)c1cc2c(ncc3c(=O)n(-c4ccccc4)[nH]c32)s1`, the TGI was greater than 100 µM.
Consider `O=C(CCl)NNC1=Nc2ccc(Cl)cc2SC1`, for which the TGI turned out to be 5.01 µM.
The same measure, in the same setting: the result for `CCCc1c(-c2ccccc2)[nH]c2ccccc2c1=O` reads greater than 100 µM; that for `Cc1ccc(C2OC(COCc3ccc(Cl)cc3)C(OCc3ccc(Cl)cc3)C2O)cc1` (centres undefined), 81.2 µM.
`CO/N=C(/C)c1ccc(NC(=O)CSc2nnc(-c3ccncc3)n2-c2ccccc2)cc1`: the GI50 is greater than 100 µM and the TGI was greater than 100 µM.
`C[N+](C)(C)CCc1ccccc1` displayed a TGI greater than 100 µM.
On the same count and under the same terms, the result for `COc1c(Br)cc2c(c1OC)C(Br)CCC(Br)(Br)C2=O` (centres undefined) reads 6.06 µM.
On the same count and under the same terms, as for `O=C1C=CC2(C=C1)O[C@H](Cc1ccccc1)[C@@H](Cc1ccccc1)O2`, the figure is 0.499 µM; as for `CCCNC(=O)C(C)C1CCC2(C)C=CC(=O)C(C)=C2C1O` (centres undefined), greater than 100 µM; as for `O=C(Nc1nc2ccc([N+](=O)[O-])cc2s1)C(=O)C(C(=O)c1ccccc1F)C1OC(=O)c2ccccc21` (centres undefined), 70.6 µM.
On the same count and under the same terms, the result for `Nc1ccn(C2C=C(CO)C(O)C2O)c(=O)c1` (centres undefined) reads greater than 625 µM; that for `COc1nc(=O)n(COC(CO)CN2C(=O)c3ccccc3C2=O)cc1Cc1cccc(OCc2ccccc2)c1` (centres undefined), 42.3 µM.

A further assay concerns SK-MEL-2 melanoma. Briefly: inhibition of tumour cell growth, NCI panel, 48 h.
Compound `N#C[C@H](OC1OC(COC2OC(CO)C(O)C(O)C2O)C(O)C(O)C1O)c1ccccc1` (some centres undefined) showed a TGI greater than 250 µM.
Turning to `CCN(CC)c1ccc2cc(C(=O)Nc3ccc4[nH]c(C(=O)N5C[C@@H](CCl)c6c5cc(OC(=O)Nc5ccccc5)c5[nH]cc(C)c65)cc4c3)oc2c1`, the GI50 was greater than 1000 µM and the TGI was greater than 1000 µM.
